{"source": "paper PMC6028453", "about": "“BrlR from Pseudomonas aeruginosa is a receptor for both cyclic di-GMP and pyocyanin” (Nature Communications, 2018)", "key": {"[1]": {"biological_target": "T1, BrlR R31A DNA binding (Pseudomonas aeruginosa, UniProt Q9HUT5, R31A)", "T1 construct": "His6-SUMO (N, cleaved yes); made in house; host or cells: E. coli BL21 DE3", "T1 sequence (Q9HUT5 whole entry R31A)": "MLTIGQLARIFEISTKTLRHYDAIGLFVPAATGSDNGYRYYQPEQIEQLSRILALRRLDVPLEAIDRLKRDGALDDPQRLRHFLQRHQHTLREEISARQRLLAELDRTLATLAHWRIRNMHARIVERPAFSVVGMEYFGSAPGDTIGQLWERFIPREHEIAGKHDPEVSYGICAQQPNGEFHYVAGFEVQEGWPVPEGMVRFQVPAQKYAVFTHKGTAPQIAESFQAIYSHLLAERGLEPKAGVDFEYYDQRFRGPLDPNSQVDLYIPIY", "experiment": "EMSA, BrlR R31A", "format": "biochemical", "protocol": "A 6-carboxy-fluorescein (FAM)-labeled 36-bp brlR promoter DNA (PbrlR) or 80-bp mexA/mexE promoter DNA (PmexA/PmexE) probes (~0.375 pmol), BrlR protein and varying amounts of inducers were incubated in binding buffer (10 mM Tris HCl [pH 7.4], 50 mM KCl, 1 mM DTT, […] and 5 ng/mL poly [dI-dC]) for 60 min at 25 °C. Finally, glycerol was added to a concentration of 6.5%. The samples were subjected to a 5% polyacrylamide gel electrophoresis and run in 0.5 × Tris-borate-EDTA buffer at 80 V for 1 h at room temperature. Imaging and data analyses were performed using a Typhoon Scanner (GE Healthcare) and Imagequant software. The probes used are listed in Supplementary Table 1."}, "[2]": {"test_system": "brlR promoter activity (C2E mut3)", "experiment": "β-galactosidase assay, C2E mut3", "format": "cell-based, Pseudomonas aeruginosa", "protocol": "We also performed β-galactosidase activity assays using a PbrlR-brlR-lacZ reporter construct to investigate the transcriptional function of BrlR mutants in vivo. […] To confirm the effect of c-di-GMP in P. aeruginosa, we carried out real-time quantitative PCR analyses. Following a previous report, we introduced the diguanylate cyclase PA4843 into a WT P. aeruginosa strain carrying either pHERD20T-empty or pHERD20T-PA4843. The transcription level of brlR was analyzed using the brlR 5 F and brlR 3 R primers (Supplementary Table 1). The transcriptional level of brlR in pHERD20T-PA4843 strain is 4.5 ± 1.3-fold higher than that in the pHERD20T-empty strain (Fig. 4h).\nβ-galactosidase activity was assayed with P. aeruginosa PA01 ΔbrlR strain carrying plasmid pME6522-borne transcriptional lacZ fusions. P. aeruginosa carrying the empty vector was used as the […]. The reporter plasmids are derivatives of the pME6522 plasmid in which multiple cloning sites were inserted before the LacZ with the promoter and coding regions of brlR with diverse mutations. These reporter plasmids were transformed into the reporter strain. Overnight cultures were diluted 20-fold with LB medium supplemented with appropriate antibiotics. […]"}, "[3]": {"test_system": "brlR transcription", "experiment": "qRT-PCR of brlR transcript", "format": "cell-based, P. aeruginosa PAO1", "settings": "elevated c-di-GMP by diguanylate cyclase PA4843 in PAO1", "protocol": "PAO1 WT strains were grown under different conditions. For c-di-GMP effects, overexpression of PA4843 in PAO1 (PAO1/pHERD20T-PA4843) relative to WT cells (PAO1/ pHERD20T) was determined. When P. aeruginosa strains entered mid-log phase, arabinose was added to induce gene expression. To test pyocyanin’s effect, a P. aeruginosa PAO1 WT strain cells with high pyocyanin production was determined relative to a ΔphzA1-G1/phzA2-G2 strain not producing phenazine and a ΔphzMSH strain not producing pyocyanin.\nTotal RNA was extracted using a MiniBEST Universal RNA Extraction Kit (TaKaRa) and cDNA synthesis was performed using a PrimeScript RT reagent Kit (TaKaRa). Primers for RT-PCR listed in Supplementary Table 1 were designed using the program PrimerExpress (Applied Biosystems). The RT-PCR reactions were performed on a CFX96 Real-Time PCR Detection System (Bio-Rad) using SYBR Premix Ex Taq™ (TaKaRa). Expression of the target genes was normalized to the expression of 16 S RNA. The relative transcript abundance was calculated according to the 2^−ΔΔCt method. Five biological replicates were performed per sample. The data were analyzed with a one-tailed t-test (***P ≤ 0.001)."}}, "data": [{"smiles": "Nc1nc2c(ncn2[C@@H]2O[C@@H]3COP(=O)(O)O[C@H]4[C@@H](O)[C@H](n5cnc6c(=O)[nH]c(N)nc65)O[C@@H]4COP(=O)(O)O[C@H]3[C@H]2O)c(=O)[nH]1", "note": "[c-di-GMP, cyclic diguanylate monophosphate]", "values": [{"measurement": "DNA bound in the presence vs absence of c-di-GMP", "setting": "[1]", "value": "~ 1.3 fold"}, {"measurement": "response of β-galactosidase activity to increase in c-di-GMP concentration", "setting": "[2]", "value": "no response"}, {"measurement": "transcriptional level of brlR, pHERD20T-PA4843 strain vs pHERD20T-empty strain", "setting": "[3]", "value": "4.5 ± 1.3", "unit": "fold"}]}]}
